Several values for one entry are separate records, joined by “and”; a condition that tells them apart may be missing. Equal values may be shown once.
Key:
[1] = target: T1, DDR2 (Nonlabens (Donghaeana) dokdonensis rhodopsin, sodium-ion-pumping rhodopsin) (Nonlabens dokdonensis, UniProt A0ABX5Q1D8); assay: absorption spectroscopy of the pigment; assay type: binding; conditions: covalent, protonated Schiff base to lysine; pH 8, room temperature
T1 construct: gene LX97_00829; pentamer at neutral pH
T1 sequence (A0ABX5Q1D8 1-279): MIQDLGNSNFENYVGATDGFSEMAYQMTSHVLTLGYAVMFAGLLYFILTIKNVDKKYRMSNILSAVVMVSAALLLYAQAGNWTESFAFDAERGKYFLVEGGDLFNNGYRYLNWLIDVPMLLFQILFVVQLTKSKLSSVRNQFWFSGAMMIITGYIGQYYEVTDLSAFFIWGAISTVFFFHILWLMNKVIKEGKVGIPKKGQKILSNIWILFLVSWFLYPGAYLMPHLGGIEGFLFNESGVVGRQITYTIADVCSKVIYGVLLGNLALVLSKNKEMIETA

[2] = target: Nonlabens (Donghaeana) dokdonensis rhodopsin (DDR2) (Nonlabens (Donghaeana) dokdonensis); assay: SEC; AKTA FPLC; DDM-solubilised DDR2 at pH 7 or 9; apparent masses from soluble protein markers; 0.06% DDM, 300 mM NaCl; also run with salinixanthin bound (oligomeric form not affected)

| stoichiometry N [2] | Molecule | absorption spectroscopy of the pigment [1] |
| --- | --- | --- |
|  | CC1=C(/C=C/C(C)=C/C=C/C(C)=C/C=O)C(C)(C)CCC1 [all-trans retinal] | absorption of the all-trans retinal chromophore covalently bound to the protein |
| 5 and 10 | Nonlabens (Donghaeana) dokdonensis rhodopsin (DDR2) (natural protein) |  |
